pIC50: −log10 of the molar value.
Target: juvenile hormone esterase (Trichoplusia ni)
Assay: In vitro inhibition of Trichoplusia Juvenile Hormone Esterase.

| SMILES | pIC50 |
| --- | --- |
| CCCCCCC=CC(=O)C(F)(F)F | 4.10 |
| CCCCCCOCC(C)=O | 3.31 |
| CCCCCC[Se](=O)CC(=O)C(F)(F)F (configuration not stated) | 9.27 |

Continued by rising pIC50, values first:

| pIC50 | SMILES |
| --- | --- |
| 5.00 | CCCCCCCCC(=O)C(F)F |
| 5.17 | CCCCCCCCC(=O)C(F)(F)F |
| 6.40 | CCCCCCC#CC(=O)C(F)(F)F |
| 7.08 | CCCCCCOCC(=O)C(F)(F)F |
